What was measured:
[1] = molecular target: Sodium-dependent serotonin transporter (Homo sapiens) (UniProt P31645); details: Compound concentration 10.0 uM
[2] = molecular target: Kappa-type opioid receptor (Homo sapiens) (UniProt P41145); details: Compound concentration 10.0 uM
[3] = molecular target: 5-hydroxytryptamine receptor 2A (Homo sapiens) (UniProt P28223); details: Compound concentration 10.0 uM
[4] = molecular target: T1, 5-hydroxytryptamine receptor 2C (Homo sapiens) (UniProt P28335); details: Compound concentration 10.0 uM
T1 sequence (whole entry): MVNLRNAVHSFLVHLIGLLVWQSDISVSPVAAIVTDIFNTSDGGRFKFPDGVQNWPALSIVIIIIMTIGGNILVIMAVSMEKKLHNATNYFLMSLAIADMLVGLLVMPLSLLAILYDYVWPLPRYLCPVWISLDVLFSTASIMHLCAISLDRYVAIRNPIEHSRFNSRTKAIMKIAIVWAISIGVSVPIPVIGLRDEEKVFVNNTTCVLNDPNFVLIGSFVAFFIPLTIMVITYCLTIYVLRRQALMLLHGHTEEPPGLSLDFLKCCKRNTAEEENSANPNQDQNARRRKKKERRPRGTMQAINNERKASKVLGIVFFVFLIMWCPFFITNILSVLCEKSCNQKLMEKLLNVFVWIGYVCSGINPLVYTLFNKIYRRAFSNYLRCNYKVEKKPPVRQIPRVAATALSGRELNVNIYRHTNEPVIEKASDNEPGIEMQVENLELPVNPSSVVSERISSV

[5] = molecular target: T2, Alpha-2C adrenergic receptor (Homo sapiens) (UniProt P18825); details: Compound concentration 10.0 uM
T2 sequence (whole entry): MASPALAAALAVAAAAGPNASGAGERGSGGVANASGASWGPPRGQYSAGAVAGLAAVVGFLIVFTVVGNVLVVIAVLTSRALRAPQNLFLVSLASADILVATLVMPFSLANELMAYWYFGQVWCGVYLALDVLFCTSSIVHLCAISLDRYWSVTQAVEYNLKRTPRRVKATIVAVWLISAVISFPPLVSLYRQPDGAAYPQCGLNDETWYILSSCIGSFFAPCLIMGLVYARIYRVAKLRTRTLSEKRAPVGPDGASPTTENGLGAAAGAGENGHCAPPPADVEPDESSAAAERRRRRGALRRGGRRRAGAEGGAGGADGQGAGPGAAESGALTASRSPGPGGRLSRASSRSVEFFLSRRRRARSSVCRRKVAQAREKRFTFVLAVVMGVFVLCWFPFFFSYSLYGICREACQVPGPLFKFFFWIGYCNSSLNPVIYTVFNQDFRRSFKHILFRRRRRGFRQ

[6] = molecular target: Cysteinyl leukotriene receptor 1 (Homo sapiens) (UniProt Q9Y271); assay: LTD4 (h) (CysLT1) CEREP ligand profiling; details: Compound concentration 10.0 uM
Chain of Cysteinyl leukotriene receptor 1 (Homo sapiens) (Q9Y271 whole entry): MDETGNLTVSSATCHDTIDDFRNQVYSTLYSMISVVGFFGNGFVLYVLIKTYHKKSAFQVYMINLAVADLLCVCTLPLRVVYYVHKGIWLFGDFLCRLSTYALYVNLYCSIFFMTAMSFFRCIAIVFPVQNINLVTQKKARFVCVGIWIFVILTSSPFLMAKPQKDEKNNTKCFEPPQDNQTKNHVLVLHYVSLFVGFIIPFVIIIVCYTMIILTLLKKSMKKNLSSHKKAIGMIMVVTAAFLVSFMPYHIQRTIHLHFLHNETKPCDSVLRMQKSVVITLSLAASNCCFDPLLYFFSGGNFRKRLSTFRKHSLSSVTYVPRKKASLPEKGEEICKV

[7] = molecular target: Histamine H2 receptor (Homo sapiens) (UniProt P25021); details: Compound concentration 10.0 uM
Chain of Histamine H2 receptor (Homo sapiens) (P25021 whole entry): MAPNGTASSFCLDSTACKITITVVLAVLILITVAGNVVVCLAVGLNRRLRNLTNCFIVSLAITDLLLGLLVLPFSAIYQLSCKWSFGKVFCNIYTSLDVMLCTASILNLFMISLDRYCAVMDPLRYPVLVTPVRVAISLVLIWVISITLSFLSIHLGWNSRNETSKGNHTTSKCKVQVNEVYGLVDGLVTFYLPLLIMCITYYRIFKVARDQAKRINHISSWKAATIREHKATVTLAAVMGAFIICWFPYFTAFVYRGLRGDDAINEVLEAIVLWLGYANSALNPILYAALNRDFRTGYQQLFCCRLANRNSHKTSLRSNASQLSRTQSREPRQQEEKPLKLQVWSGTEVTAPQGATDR

[8] = molecular target: T3, Alpha-2A adrenergic receptor (Homo sapiens) (UniProt P08913); details: Compound concentration 10.0 uM
T3 sequence (whole entry): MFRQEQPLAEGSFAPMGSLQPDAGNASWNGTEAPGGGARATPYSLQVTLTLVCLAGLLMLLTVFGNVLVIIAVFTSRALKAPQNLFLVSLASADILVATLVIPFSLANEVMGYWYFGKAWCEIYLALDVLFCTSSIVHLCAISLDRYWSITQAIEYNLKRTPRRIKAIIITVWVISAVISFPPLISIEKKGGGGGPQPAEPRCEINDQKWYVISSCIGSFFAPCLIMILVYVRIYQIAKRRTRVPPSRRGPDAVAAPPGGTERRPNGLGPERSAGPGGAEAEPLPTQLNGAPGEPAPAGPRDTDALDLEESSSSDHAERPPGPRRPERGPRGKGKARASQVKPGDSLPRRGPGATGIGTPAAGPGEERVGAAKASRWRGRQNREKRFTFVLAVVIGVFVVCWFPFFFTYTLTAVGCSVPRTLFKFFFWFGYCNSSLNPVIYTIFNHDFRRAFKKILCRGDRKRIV

[9] = molecular target: T4, Alpha-2B adrenergic receptor (Homo sapiens) (UniProt P18089); details: Compound concentration 10.0 uM
T4 sequence (whole entry): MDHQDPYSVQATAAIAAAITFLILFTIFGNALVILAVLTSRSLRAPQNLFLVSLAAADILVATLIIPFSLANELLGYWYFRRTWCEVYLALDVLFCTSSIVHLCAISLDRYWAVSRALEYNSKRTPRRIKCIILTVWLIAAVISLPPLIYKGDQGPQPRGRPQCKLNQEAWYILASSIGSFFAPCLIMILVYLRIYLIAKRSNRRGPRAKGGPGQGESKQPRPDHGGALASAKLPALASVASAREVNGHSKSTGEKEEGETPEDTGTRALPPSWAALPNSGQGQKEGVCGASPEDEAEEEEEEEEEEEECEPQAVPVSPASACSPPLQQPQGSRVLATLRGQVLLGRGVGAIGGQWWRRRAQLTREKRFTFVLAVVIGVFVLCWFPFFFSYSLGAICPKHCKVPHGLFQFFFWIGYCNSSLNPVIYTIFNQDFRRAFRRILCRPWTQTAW

[10] = molecular target: cGMP-dependent protein kinase 2 (Homo sapiens) (UniProt Q13237); details: Compound concentration 1000.0 nM
Chain of cGMP-dependent protein kinase 2 (Homo sapiens) (Q13237 whole entry): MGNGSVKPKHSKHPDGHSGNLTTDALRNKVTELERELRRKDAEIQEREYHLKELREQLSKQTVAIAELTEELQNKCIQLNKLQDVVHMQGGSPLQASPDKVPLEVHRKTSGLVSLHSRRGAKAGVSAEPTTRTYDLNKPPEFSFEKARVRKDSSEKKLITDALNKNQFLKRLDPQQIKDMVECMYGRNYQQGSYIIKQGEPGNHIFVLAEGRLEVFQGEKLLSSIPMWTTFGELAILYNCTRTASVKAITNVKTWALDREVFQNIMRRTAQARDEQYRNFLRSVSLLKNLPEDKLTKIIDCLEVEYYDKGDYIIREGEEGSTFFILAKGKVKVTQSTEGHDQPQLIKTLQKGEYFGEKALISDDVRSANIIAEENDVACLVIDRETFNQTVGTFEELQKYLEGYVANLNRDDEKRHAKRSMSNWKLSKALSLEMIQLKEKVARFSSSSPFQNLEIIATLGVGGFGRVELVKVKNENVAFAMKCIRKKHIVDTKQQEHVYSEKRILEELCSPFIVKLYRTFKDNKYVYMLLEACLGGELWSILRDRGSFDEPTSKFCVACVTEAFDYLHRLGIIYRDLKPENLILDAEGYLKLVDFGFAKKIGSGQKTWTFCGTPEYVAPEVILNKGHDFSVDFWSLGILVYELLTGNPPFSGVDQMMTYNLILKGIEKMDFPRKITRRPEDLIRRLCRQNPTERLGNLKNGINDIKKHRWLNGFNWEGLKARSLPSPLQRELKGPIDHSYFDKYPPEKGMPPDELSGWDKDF

[11] = molecular target: Bone morphogenetic protein receptor type-2 (Homo sapiens) (UniProt Q13873); details: Compound concentration 1000.0 nM
Chain of Bone morphogenetic protein receptor type-2 (Homo sapiens) (Q13873 whole entry): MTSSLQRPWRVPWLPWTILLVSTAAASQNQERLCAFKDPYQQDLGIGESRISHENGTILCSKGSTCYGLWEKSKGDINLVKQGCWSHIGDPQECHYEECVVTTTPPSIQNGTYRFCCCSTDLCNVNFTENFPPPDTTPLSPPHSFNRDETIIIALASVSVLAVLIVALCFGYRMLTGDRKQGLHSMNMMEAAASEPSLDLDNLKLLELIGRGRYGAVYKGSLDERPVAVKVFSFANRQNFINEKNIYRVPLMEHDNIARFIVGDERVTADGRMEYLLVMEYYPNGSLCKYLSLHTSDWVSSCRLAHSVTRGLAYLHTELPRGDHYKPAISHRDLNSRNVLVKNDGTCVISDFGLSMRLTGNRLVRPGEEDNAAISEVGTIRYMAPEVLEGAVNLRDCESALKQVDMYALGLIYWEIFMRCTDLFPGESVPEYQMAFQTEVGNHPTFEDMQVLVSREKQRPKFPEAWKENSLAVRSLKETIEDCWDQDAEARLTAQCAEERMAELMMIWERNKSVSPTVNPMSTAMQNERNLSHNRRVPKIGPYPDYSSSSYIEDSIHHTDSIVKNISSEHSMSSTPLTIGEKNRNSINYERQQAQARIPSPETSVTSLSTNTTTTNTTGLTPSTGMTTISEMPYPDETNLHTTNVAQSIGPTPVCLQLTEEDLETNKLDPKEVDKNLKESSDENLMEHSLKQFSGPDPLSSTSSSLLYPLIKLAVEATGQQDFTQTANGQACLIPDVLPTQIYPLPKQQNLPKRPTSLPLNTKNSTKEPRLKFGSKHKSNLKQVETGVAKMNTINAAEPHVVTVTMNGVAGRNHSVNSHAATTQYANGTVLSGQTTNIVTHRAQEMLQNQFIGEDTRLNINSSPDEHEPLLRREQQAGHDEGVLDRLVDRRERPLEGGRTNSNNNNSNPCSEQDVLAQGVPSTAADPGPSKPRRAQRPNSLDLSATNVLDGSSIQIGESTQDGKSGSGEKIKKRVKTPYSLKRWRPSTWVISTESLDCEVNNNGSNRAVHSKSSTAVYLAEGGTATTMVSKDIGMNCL

[12] = molecular target: T5, Muscarinic acetylcholine receptor M1 (Homo sapiens) (UniProt P11229); details: Compound concentration 10.0 uM
T5 sequence (whole entry): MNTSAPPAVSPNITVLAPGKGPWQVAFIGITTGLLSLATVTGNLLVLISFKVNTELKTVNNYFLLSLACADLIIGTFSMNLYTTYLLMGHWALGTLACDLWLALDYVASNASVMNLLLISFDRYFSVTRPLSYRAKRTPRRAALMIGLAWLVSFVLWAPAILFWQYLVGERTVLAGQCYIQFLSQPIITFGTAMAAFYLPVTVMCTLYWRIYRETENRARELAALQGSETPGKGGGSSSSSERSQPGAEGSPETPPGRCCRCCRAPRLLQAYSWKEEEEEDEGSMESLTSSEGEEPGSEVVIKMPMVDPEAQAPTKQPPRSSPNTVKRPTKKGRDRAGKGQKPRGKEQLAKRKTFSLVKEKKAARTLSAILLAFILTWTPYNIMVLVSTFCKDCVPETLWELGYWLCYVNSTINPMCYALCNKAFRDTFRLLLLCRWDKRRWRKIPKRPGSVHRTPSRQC

[13] = molecular target: Sodium-dependent noradrenaline transporter (Homo sapiens) (UniProt P23975); details: Compound concentration 10.0 uM
Chain of Sodium-dependent noradrenaline transporter (Homo sapiens) (P23975 whole entry): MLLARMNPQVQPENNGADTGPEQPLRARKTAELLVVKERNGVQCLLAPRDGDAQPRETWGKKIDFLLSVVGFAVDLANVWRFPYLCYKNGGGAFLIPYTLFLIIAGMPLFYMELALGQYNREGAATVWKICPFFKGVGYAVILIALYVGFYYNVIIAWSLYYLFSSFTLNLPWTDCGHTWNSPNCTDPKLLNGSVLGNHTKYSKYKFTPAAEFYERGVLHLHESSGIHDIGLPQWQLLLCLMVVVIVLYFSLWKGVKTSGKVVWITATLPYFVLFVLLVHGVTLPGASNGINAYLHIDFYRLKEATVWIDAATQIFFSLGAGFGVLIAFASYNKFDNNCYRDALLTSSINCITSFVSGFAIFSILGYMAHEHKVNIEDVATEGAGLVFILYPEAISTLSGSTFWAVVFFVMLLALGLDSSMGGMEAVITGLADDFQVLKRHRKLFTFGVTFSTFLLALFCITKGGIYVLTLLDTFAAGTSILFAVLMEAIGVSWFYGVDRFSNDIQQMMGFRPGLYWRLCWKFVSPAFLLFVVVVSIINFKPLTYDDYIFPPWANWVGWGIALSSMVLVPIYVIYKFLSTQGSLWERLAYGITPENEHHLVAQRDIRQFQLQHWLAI

[14] = molecular target: 5-hydroxytryptamine receptor 1E (Homo sapiens) (UniProt P28566); details: Compound concentration 10.0 uM
Chain of 5-hydroxytryptamine receptor 1E (Homo sapiens) (P28566 whole entry): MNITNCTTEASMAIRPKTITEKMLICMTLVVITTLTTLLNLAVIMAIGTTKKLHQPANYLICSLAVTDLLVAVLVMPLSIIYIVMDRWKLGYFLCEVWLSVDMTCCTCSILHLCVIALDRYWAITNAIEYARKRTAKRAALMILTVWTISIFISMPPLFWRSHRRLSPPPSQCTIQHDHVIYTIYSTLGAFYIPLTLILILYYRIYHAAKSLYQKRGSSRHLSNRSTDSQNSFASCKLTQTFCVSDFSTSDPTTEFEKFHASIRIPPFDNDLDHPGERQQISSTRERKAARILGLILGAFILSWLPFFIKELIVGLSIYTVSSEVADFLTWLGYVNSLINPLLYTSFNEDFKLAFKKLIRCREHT

Chain of Sodium-dependent serotonin transporter (Homo sapiens) (P31645 whole entry, looked up): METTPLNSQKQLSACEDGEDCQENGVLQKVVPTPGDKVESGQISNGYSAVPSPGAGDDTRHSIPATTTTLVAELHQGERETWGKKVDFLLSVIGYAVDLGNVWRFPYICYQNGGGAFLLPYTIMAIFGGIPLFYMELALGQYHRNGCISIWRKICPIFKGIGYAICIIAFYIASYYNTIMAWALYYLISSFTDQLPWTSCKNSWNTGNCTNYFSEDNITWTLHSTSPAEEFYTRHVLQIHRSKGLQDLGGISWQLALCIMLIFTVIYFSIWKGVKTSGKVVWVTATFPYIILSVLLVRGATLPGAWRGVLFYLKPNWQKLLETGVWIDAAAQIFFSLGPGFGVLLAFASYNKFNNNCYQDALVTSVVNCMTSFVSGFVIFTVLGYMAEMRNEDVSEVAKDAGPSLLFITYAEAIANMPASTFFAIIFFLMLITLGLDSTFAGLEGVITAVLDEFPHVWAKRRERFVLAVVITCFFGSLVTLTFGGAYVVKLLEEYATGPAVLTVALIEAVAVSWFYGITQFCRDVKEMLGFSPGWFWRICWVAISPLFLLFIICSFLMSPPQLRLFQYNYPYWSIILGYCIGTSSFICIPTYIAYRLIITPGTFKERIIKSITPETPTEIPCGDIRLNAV
Chain of Kappa-type opioid receptor (Homo sapiens) (P41145 whole entry): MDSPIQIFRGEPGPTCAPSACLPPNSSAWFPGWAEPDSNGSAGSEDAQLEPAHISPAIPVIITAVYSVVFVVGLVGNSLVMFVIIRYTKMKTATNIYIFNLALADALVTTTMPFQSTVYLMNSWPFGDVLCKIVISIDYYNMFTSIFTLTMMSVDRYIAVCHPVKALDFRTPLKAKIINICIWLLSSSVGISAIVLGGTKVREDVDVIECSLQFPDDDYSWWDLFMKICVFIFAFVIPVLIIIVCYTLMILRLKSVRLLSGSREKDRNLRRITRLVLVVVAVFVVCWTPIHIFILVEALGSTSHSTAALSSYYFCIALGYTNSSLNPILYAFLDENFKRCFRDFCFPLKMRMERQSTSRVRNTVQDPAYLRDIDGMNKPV
Chain of 5-hydroxytryptamine receptor 2A (Homo sapiens) (P28223 whole entry): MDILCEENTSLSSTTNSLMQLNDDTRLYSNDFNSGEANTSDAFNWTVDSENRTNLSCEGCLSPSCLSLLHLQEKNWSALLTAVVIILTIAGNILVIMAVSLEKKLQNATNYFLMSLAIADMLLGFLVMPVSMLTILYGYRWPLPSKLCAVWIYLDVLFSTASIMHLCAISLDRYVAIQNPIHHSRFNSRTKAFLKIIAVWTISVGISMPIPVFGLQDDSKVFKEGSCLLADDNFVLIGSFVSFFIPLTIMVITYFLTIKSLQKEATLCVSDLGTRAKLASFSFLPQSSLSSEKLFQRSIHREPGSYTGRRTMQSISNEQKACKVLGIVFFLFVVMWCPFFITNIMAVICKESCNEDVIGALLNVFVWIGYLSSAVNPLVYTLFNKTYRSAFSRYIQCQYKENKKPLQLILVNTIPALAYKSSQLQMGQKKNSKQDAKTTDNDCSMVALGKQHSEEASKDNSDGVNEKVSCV

COc1ccc2cc(OCC3(C(=O)O)CN(C(=O)c4ccc(F)cc4)C3)ccc2c1 [PF-04418948]
inactive: inhibition [1] -6.83% | inhibition [2] 16.4% | inhibition [3] 6.25% | inhibition [4] 12.3% | inhibition [5] 9.72% | inhibition [6] 2% | inhibition [7] 3% | inhibition [8] 21.8% | inhibition [9] 9.24% | residual activity [10] 85% | residual activity [11] 87% | inhibition [12] -0.03% | inhibition [13] 11% | inhibition [14] 11%

O=C(c1ccc(F)cc1)N1CC(COc2ccc(Br)cc2)(C(=O)O)C1 [PF-04475866]
inactive: inhibition [1] -6.29% | inhibition [2] -9.45% | inhibition [3] -2.23% | inhibition [4] 30.2% | inhibition [5] 11.3% | inhibition [7] 15.7% | inhibition [8] 14.2% | inhibition [9] 12.1% | inhibition [12] -0.69% | inhibition [13] 16.8% | inhibition [14] 12.2%
